# Results reported in US20230135894A1, “MK2 DEGRADERS AND USES THEREOF” (Kymera Therapeutics, Inc., priority 2021, published 2023).
# Key:
# MK2 [1] = target: T1, MK2 (Homo sapiens, UniProt P49137); assay: MK2 degradation in human THP-1 monocytic cells (MSD, 24 h); format: cell-based; design: endogenous in cells; details: for Dmax: THP-1, THP-1 cells; for DC50: THP-1 cells, read-out: MK2 MSD THP-1 degradation 24 h GMean External Abs DC50
# Procedure: MK2 Degradation in Human THP-1 Monoctyic Cells
# (§1) The human monocytic cancer cell line THP-1 (ATCC (TIB-202)) was cultured in 96 well plates (Corning 3894) at a density of 200,000 cells per well in 100 microlitres in complete growth medium of RPMI 1640 (Gibco) pus 10% fetal Bovine Serum (Corning) and Penicillin/Streptomycin (SolarBio) at 37 degrees Celsius and 5% CO2. A serial dilution of each compound (usually 3 to 5 fold serial dilutions up to 10 separate concentration points) was added to individual wells from a 10 millimolar stock solution, at a background concentration of 0.1% DMSO and the cells were shaken at 600 rpm for 5 minutes and then were cultured for 24 hours at 37 degrees Celsius and 5% carbon dioxide. Separately, a custom MSD (MesoScaleDiscovery, L15XA-3) plate for detection of human MK2 was prepared by coating the plate with the commercial AbCam ab247272 reagent in 1×Phosphate Buffered Saline at 40 microlitres per well and incubated at 4 degrees Celsius overnight. The next day, the MSD plate was washed with 150 microlitres of Tween buffered saline, blocked with MSD blocking buffer (3% Blocker A from MSD), and washed again.
# (§2) The cell plate was centrifuged at 3,200 g for 5 minutes and the supernatant was discarded and 100 microlitres of RIPA lysis buffer (containing proteinase inhibitors, Boston BioProducts BP-115D) was added and the plate was sealed and shaken on ice for 20 minutes. The plate was centrifuged as before and 70 microlitres of sample lysate was added to the MSD plates and they were shaken at room temperature for 1 hour at 600 rpm. The MSD plate was washed 3 times as before and then the primary MK2 detection antibody (Santa Cruz sc-100393) was added at a final concentration of 1 microgram per ml at 25 microlitres per well and shaken at room temperature for 1 hour at 600 rpm.
# (§3) After 3 more washes, the secondary detection antibody (SULFO-Tag anti rabbit antibody R32AB-5) was added at a final concentration of 1 microgram per ml at 25 microlitres per well and shaken at room temperature for 1 hour at 600 rpm. After 3 more washes, the 1×MSD (diluted from 5× concentrate with water) reading buffer was added at 150 microlitres per well and read on the MSD instrument Meso Sector S 600.
# (§4) The inhibition/degradation curves and DC50 values were plotted and calculated using XL Fit (version v5.3.1.3) using equation 201 and a 4 parameter logistic model whereby fit=(A+((B−A)/(1+((x/C)D))) where A is the Bottom and B is the Top and C is the IC50 and D is the slope and high C is the signal for the DMSO treated cells and Low C is the signal is the signal for the lysis buffer.
# MK2 [2] = target: T1, MK2; assay: MK2 degradation in human SW1353 cells (MSD, 24 h); format: cell-based; design: endogenous in cells; host or cells: SW-1353 (ATCC HTB-94); details: for Dmax: read-out: MK2 MSD SW 1353 24 h Dmax %; for DC50: read-out: MK2 MSD SW1353 degradation 24 h GMean External Abs DC50
# Procedure: MK2 Degradation in Human SW1353 Cells
# as §1, with “chondrocyte” for “monocytic”, “SW-1353 (ATCC(HTB-94))” for “THP-1 (ATCC (TIB-202))”, “Leibovitz's L-15 Medium” for “RPMI 1640”, “Celsius.” for “Celsius and 5% CO2.”, “Celsius.” for “Celsius and 5% carbon dioxide.”
# as §2, §3, §4
# T1 sequence (P49137 whole entry): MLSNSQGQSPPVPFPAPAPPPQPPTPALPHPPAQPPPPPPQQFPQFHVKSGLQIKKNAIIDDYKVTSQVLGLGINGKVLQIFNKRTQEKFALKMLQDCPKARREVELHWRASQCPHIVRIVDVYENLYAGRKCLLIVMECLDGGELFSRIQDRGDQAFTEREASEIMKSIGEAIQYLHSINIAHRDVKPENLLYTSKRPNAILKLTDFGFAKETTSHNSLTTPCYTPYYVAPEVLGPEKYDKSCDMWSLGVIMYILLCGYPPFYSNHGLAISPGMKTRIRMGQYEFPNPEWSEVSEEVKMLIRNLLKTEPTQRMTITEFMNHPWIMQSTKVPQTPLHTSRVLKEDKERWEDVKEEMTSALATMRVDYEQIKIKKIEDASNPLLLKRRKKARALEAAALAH
Dmax (MK2 [1]),DC50 (MK2 [1]),Dmax (MK2 [2]),DC50 (MK2 [2]),SMILES
< 50%,> 100 nM,< 50%,> 100 nM,CN1CC2(CNC(=O)c3c2[nH]c2c3CCc3cnc(-c4ccc(CN5CCC(OCC#Cc6ccc7c(c6)n(C)c(=O)n7C6CCC(=O)NC6=O)CC5)cc4F)cc3-2)C1 (stereo not shown) [Compound I-1]
< 50%,> 100 nM,< 50%,> 100 nM,CN1CC2(CNC(=O)c3c2[nH]c2c3CCc3cnc(-c4ccc(CN5CCC(OCC#Cc6cccc7c6n(C)c(=O)n7C6CCC(=O)NC6=O)CC5)cc4F)cc3-2)C1 (stereo not shown) [Compound I-2]
> 75%,< 1 nM,> 75%,< 1 nM,C[C@@H]1CNc2c(sc3ccc4nc(-c5cccc(N6CCN(C(=O)COCCOCCc7cccc8c7n(C)c(=O)n8C7CCC(=O)NC7=O)CC6)c5)ccc4c23)C(=O)N1 (stereo partly shown) [Compound I-34]
> 75%,1 to 10 nM,> 75%,1 to 10 nM,C[C@@H]1CNc2c(sc3ccc4nc(-c5cccc(N6CCN(C(=O)COCCOCCOCCOCCc7ccc8c(c7)n(C)c(=O)n8C7CCC(=O)NC7=O)CC6)c5)ccc4c23)C(=O)N1 (stereo partly shown) [Compound I-36]
> 75%,< 1 nM,> 75%,< 1 nM,C[C@@H]1CNc2c(sc3ccc4nc(-c5ccc(N6CCN(C(=O)COCCOCCOCCOCCc7ccc8c(c7)n(C)c(=O)n8C7CCC(=O)NC7=O)CC6)cc5)ccc4c23)C(=O)N1 (stereo partly shown) [Compound I-43]
> 75%,10 to 100 nM,> 75%,10 to 100 nM,C[C@@H]1CNc2c(sc3ccc4nc(-c5cccc(C#CCCNC(=O)CCCCCCCCCc6ccc7c(c6)n(C)c(=O)n7C6CCC(=O)NC6=O)c5)ccc4c23)C(=O)N1 (stereo partly shown) [Compound I-45]
> 75%,10 to 100 nM,> 75%,1 to 10 nM,C[C@@H]1CNc2c(sc3ccc4nc(-c5cccc(C#CCCNC(=O)CCCCCCCc6cccc7c6n(C)c(=O)n7C6CCC(=O)NC6=O)c5)ccc4c23)C(=O)N1 (stereo partly shown) [Compound I-48]
> 75%,1 to 10 nM,> 75%,1 to 10 nM,C[C@@H]1CNc2c(sc3ccc4nc(-c5cccc(C#CCCNC(=O)COCCOCCc6ccc7c(c6)n(C)c(=O)n7C6CCC(=O)NC6=O)c5)ccc4c23)C(=O)N1 (stereo partly shown) [Compound I-49]
> 75%,1 to 10 nM,> 75%,1 to 10 nM,C[C@@H]1CNc2c(sc3ccc4nc(-c5cccc(C#CCNC(=O)COCCOCCc6cccc7c6n(C)c(=O)n7C6CCC(=O)NC6=O)c5)ccc4c23)C(=O)N1 (stereo partly shown) [Compound I-50]
> 75%,1 to 10 nM,> 75%,1 to 10 nM,C[C@@H]1CNc2c(sc3ccc4nc(-c5cccc(C#CCCNC(=O)COCCOCCOCCOCCc6ccc7c(c6)n(C)c(=O)n7C6CCC(=O)NC6=O)c5)ccc4c23)C(=O)N1 (stereo partly shown) [Compound I-51]
50 to 75%,10 to 100 nM,> 75%,10 to 100 nM,C[C@@H]1CNc2c(sc3ccc4nc(-c5ccc(C#CCCNC(=O)CCCCCCCCCc6ccc7c(c6)n(C)c(=O)n7C6CCC(=O)NC6=O)cc5)ccc4c23)C(=O)N1 (stereo partly shown) [Compound I-53]
–,10 to 100 nM,> 75%,–,C[C@@H]1CNc2c(sc3ccc4nc(-c5ccc(C#CCCNC(=O)CCCCCCCCCc6cccc7c6n(C)c(=O)n7C6CCC(=O)NC6=O)cc5)ccc4c23)C(=O)N1 (stereo partly shown) [Compound I-54]
> 75%,1 to 10 nM,> 75%,1 to 10 nM,C[C@@H]1CNc2c(sc3ccc4nc(-c5ccc(C#CCCNC(=O)CCCCCCCc6ccc7c(c6)n(C)c(=O)n7C6CCC(=O)NC6=O)cc5)ccc4c23)C(=O)N1 (stereo partly shown) [Compound I-55]
> 75%,1 to 10 nM,> 75%,1 to 10 nM,C[C@@H]1CNc2c(sc3ccc4nc(-c5ccc(CNC(=O)CCCCCCCCCc6cccc7c6n(C)c(=O)n7C6CCC(=O)NC6=O)cc5)ccc4c23)C(=O)N1 (stereo partly shown) [Compound I-86]
> 75%,1 to 10 nM,> 75%,1 to 10 nM,C[C@@H]1CNc2c(sc3ccc4nc(-c5ccc(CNC(=O)CCCCCCCc6ccc7c(c6)n(C)c(=O)n7C6CCC(=O)NC6=O)cc5)ccc4c23)C(=O)N1 (stereo partly shown) [Compound I-87]
> 75%,1 to 10 nM,> 75%,1 to 10 nM,C[C@@H]1CNc2c(sc3ccc4nc(-c5ccc(CNC(=O)CCCCCCCc6cccc7c6n(C)c(=O)n7C6CCC(=O)NC6=O)cc5)ccc4c23)C(=O)N1 (stereo partly shown) [Compound I-88]
> 75%,1 to 10 nM,> 75%,1 to 10 nM,C[C@@H]1CNc2c(sc3ccc4nc(-c5ccc(CNC(=O)COCCOCCOCCOCCc6cccc7c6n(C)c(=O)n7C6CCC(=O)NC6=O)cc5)ccc4c23)C(=O)N1 (stereo partly shown) [Compound I-92]
> 75%,< 1 nM,> 75%,1 to 10 nM,C[C@@H]1CNc2c(sc3ccc4nc(-c5cccc(N6CCN(CCCc7cccc8c7n(C)c(=O)n8C7CCC(=O)NC7=O)CC6)c5)ccc4c23)C(=O)N1 (stereo partly shown) [Compound I-93]
> 75%,< 1 nM,> 75%,1 to 10 nM,C[C@@H]1CNc2c(sc3ccc4nc(-c5cccc(N6CCN(CCCCCc7cccc8c7n(C)c(=O)n8C7CCC(=O)NC7=O)CC6)c5)ccc4c23)C(=O)N1 (stereo partly shown) [Compound I-94]
> 75%,< 1 nM,> 75%,1 to 10 nM,C[C@@H]1CNc2c(sc3ccc4nc(-c5cccc(N6CCN(CCCCCCCc7cccc8c7n(C)c(=O)n8C7CCC(=O)NC7=O)CC6)c5)ccc4c23)C(=O)N1 (stereo partly shown) [Compound I-95]
> 75%,< 1 nM,> 75%,1 to 10 nM,C[C@@H]1CNc2c(sc3ccc4nc(-c5cccc(N6CCC(CN7CCC(c8cccc9c8n(C)c(=O)n9C8CCC(=O)NC8=O)CC7)CC6)c5)ccc4c23)C(=O)N1 (stereo partly shown) [Compound I-96]
> 75%,< 1 nM,> 75%,< 1 nM,C[C@@H]1CNc2c(sc3ccc4nc(-c5ccc(N6CCC(CN7CCC(c8cccc9c8n(C)c(=O)n9C8CCC(=O)NC8=O)CC7)CC6)cc5)ccc4c23)C(=O)N1 (stereo partly shown) [Compound I-98]
> 75%,< 1 nM,> 75%,< 1 nM,C[C@@H]1CNc2c(sc3ccc4nc(-c5ccc(N6CCC(CN7CCC(c8cccc9c8n(C)c(=O)n9C8CCC(=O)NC8=O)CC7)CC6)nc5)ccc4c23)C(=O)N1 (stereo partly shown) [Compound I-99]
> 75%,1 to 10 nM,> 75%,1 to 10 nM,C[C@@H]1CNc2c(sc3ccc4nc(-c5cncc(N6CCN(C(=O)COCCOCCc7cccc8c7n(C)c(=O)n8C7CCC(=O)NC7=O)CC6)c5)ccc4c23)C(=O)N1 (stereo partly shown) [Compound I-100]
